molecular target: T1, IDO1 (Homo sapiens, UniProt P14902); experiment: Cell-based (HeLa) assay for measurement of IDO1 inhibition (kynurenine levels in supernatant after IFNγ induction); settings: HeLa cells, IFNγ-induced IDO1, kynurenine in supernatant after 48 hour incubation; geometric mean of a minimum of four determinations
T1 construct: HeLa cells were treated with a test compound in the presence of IFNγ, which induces IDO1 expression; host or cells: H1-HeLa cells, IDO1 induced with IFNγ
Procedure, shortened: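 HeLa cells, 1,250 per well, treated with compound (0.5% DMSO final) plus IFNγ to induce IDO1, for 48 h. Supernatant kynurenine measured by TCA hydrolysis at 60 °C, then p-dimethylaminobenzaldehyde, absorbance 480 nm. EC50 from a four-parameter fit normalized to −/+IFNγ controls; geometric mean of at least four runs.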

T1 sequence (P14902 whole entry): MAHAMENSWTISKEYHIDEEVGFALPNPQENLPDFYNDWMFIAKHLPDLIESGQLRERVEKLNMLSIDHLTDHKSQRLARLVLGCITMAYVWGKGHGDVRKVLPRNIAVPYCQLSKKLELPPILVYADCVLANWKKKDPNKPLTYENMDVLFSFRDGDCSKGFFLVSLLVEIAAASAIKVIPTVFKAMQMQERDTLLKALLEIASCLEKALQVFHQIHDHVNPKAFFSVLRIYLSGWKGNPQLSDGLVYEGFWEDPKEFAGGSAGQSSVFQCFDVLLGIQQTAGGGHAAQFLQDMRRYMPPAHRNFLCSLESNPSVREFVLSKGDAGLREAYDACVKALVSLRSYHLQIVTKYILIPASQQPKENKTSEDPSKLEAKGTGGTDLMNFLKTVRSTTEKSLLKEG

| EC50 | Compound |
| --- | --- |
| 1630 nM | NC1(CCNc2nc3nccc(/C(=N/O)Nc4ccc(F)c(Cl)c4)c3[nH]2)CC1 [Example 242, 2-((2-(1-aminocyclopropyl)ethyl)amino)-N-(3-chloro-4-fluorophenyl)-N′-hydroxy-1H-imidazo[4,5-b]pyridine-7-carboximidamide] |
| > 10000 nM | CN1CCOCC1CNc1nc2nccc(/C(=N/O)Nc3ccc(F)c(Cl)c3)c2[nH]1 (stereo not drawn) [Example 282, N-(3-chloro-4-fluorophenyl)-N′-hydroxy-2-(((4-methylmorpholin-3-yl)methyl)amino)-1H-imidazo[4,5-b]pyridine-7-carboximidamide] |
| 897 nM | Nc1nc2nccc(/C(=N/O)Nc3ccc(F)c(Cl)c3)c2[nH]1 [Example 153, 2-Amino-N-(3-chloro-4-fluorophenyl)-N′-hydroxy-1H-imidazo[4,5-b]pyridine-7-carboximidamide] |
| 1510 nM | COCCNCCc1nc2nccc(/C(=N/O)Nc3ccc(F)c(Cl)c3)c2[nH]1 [Example 190, N-(3-Chloro-4-fluorophenyl)-N′-hydroxy-2-(2-((2-methoxyethyl)amino)ethyl)-1H-imidazo[4,5-b]pyridine-7-carboximidamide] |
| 1810 nM | O/N=C(\Nc1ccc(F)c(C2CC2)c1)c1ccnc2nc[nH]c12 [Example 65, N-(3-Cyclopropyl-4-fluorophenyl)-N′-hydroxy-1H-imidazo[4,5-b]pyridine-7-carboximidamide] |
| 9560 nM | NS(=O)(=O)CCNc1nc2c(F)c(F)cc(/C(=N/O)Nc3ccc(F)c(Cl)c3)c2[nH]1 [Example 298, N-(3-chloro-4-fluorophenyl)-4,5-difluoro-N′-hydroxy-2-((2-sulfamoylethyl)amino)-1H-benzo[d]imidazole-7-carboximidamide] |
| 2150 nM | CS(=O)(=O)CCNc1nc2c(F)c(F)cc(/C(=N/O)Nc3ccc(F)c(Cl)c3)c2[nH]1 [Example 35, N-(3-Chloro-4-fluorophenyl)-4,5-difluoro-N′-hydroxy-2-((2-(methylsulfonyl)ethyl)amino)-1H-benzo[d]imidazole-7-carboximidamide] |
| 3740 nM | O/N=C(\Nc1ccc(F)c(Cl)c1)c1ccnc2nc(NCCC3CCOCC3)[nH]c12 [Example 224, N-(3-chloro-4-fluorophenyl)-N′-hydroxy-2-((2-(tetrahydro-2H-pyran-4-yl)ethyl)amino)-1H-imidazo[4,5-b]pyridine-7-carboximidamide] |
| 3620 nM | CC(C)(C)OC(=O)NCCc1nc2c(F)c(F)cc(/C(=N/O)Nc3ccc(F)c(Cl)c3)c2[nH]1 [Example 213, tert-butyl (2-(7-(N-(3-chloro-4-fluorophenyl)-N′-hydroxycarbamimidoyl)-4,5-difluoro-1H-benzo[d]imidazol-2-yl)ethyl)carbamate] |
| 1820 nM | CN(C)Cc1nc2c(F)ccc(/C(=N/O)Nc3ccc(F)c(Cl)c3)c2[nH]1 [Example 288, N-(3-chloro-4-fluorophenyl)-2-((dimethylamino)methyl)-4-fluoro-N′-hydroxy-1H-benzo[d]imidazole-7-carboximidamide] |
| 428 nM | CN(C)CCNc1nc2c(F)ccc(/C(=N/O)Nc3ccc(F)c(Cl)c3)c2[nH]1 [Example 201, N-(3-Chloro-4-fluorophenyl)-2-[2-(dimethylamino)ethylamino]-7-fluoro-N′-hydroxy-3H-benzimidazole-4-carboximidamide] |
| 583 nM | O/N=C(\Nc1cccc2occc12)c1ccnc2nc[nH]c12 [Example 67, N-(Benzofuran-4-yl)-N′-hydroxy-1H-imidazo[4,5-b]pyridine-7-carboximidamide] |
| 1200 nM | CN(C)CCNc1nc2nccc(C(=NO)Nc3ccc(F)c(Cl)c3)c2[nH]1 [Example 215, N-(3-chloro-4-fluorophenyl)-2-((2-(dimethylamino)ethyl)amino)-N′-hydroxy-1H-imidazo[4,5-b]pyridine-7-carboximidamide] |
| 6740 nM | O/N=C(\Nc1ccc(F)c(Cl)c1)c1ccc(F)c2nc(NCCN3CCOCC3)[nH]c12 [Example 34, N-(3-Chloro-4-fluorophenyl)-4-fluoro-N′-hydroxy-2-((2-morpholinoethyl)amino)-1H-benzo[d]imidazole-7-carboximidamide] |

same assay, conditions: HeLa cells, IFNγ-induced IDO1, kynurenine in supernatant, 48 hour incubation; geometric mean of a minimum of four determinations

| EC50 | Compound |
| --- | --- |
| 2880 nM | CN1CCC(Nc2nc3c(F)c(F)cc(/C(=N/O)Nc4ccc(F)c(Cl)c4)c3[nH]2)CC1 [Example 442, N-(3-chloro-4-fluorophenyl)-4,5-difluoro-N′-hydroxy-2-((1-methylpiperidin-4-yl)amino)-1H-benzo[d]imidazole-7-carboximidamide] |
| 3490 nM | CN1CCCCC1Cc1nc2nccc(/C(=N/O)Nc3ccc(F)c(Cl)c3)c2[nH]1 (stereo not drawn) [Example 305, N-(3-chloro-4-fluorophenyl)-N′-hydroxy-2-((1-methylpiperidin-2-yl)methyl)-1H-imidazo[4,5-b]pyridine-7-carboximidamide] |
| > 10000 nM | CC(C)(O)Cc1nc2c(F)c(F)cc(/C(=N/O)Nc3ccc(F)c(Cl)c3)c2[nH]1 [Example 302, N-(3-chloro-4-fluorophenyl)-4,5-difluoro-N′-hydroxy-2-(2-hydroxy-2-methylpropyl)-1H-benzo[d]imidazole-7-carboximidamide] |
| 8470 nM | ON=C(Nc1ccc(F)c(Cl)c1)c1cc(F)c(F)c2nc(Cl)[nH]c12 [Example 346, 2-chloro-N-(3-chloro-4-fluorophenyl)-4,5-difluoro-N′-hydroxy-1H-benzo[d]imidazole-7-carboximidamide] |
| 1590 nM | CN(C)C1(CNc2nc3c(F)c(F)cc(/C(=N/O)Nc4ccc(F)c(Cl)c4)c3[nH]2)CCCCC1 [Example 450, N-(3-chloro-4-fluorophenyl)-2-(((1-(dimethylamino)cyclohexyl)methyl)amino)-4,5-difluoro-N′-hydroxy-1H-benzo[d]imidazole-7-carboximidamide] |
| 1360 nM | CN(C)CCSc1nc2nccc(/C(=N/O)Nc3ccc(F)c(Cl)c3)c2[nH]1 [Example 487, N-(3-chloro-4-fluorophenyl)-2-((2-(dimethylamino)ethyl)thio)-N′-hydroxy-1H-imidazo[4,5-b]pyridine-7-carboximidamide] |
| 6120 nM | CC(=O)NCCNc1nc2c(F)c(F)cc(/C(=N/O)Nc3ccc(F)c(Cl)c3)c2[nH]1 [Example 334, N-(2-((7-(N-(3-chloro-4-fluorophenyl)-N′-hydroxycarbamimidoyl)-4,5-difluoro-1H-benzo[d]imidazol-2-yl)amino)ethyl)acetamide] |
| 185 nM | CC(C)N(CCNc1nc2nccc(/C(=N/O)Nc3ccc(F)c(Cl)c3)c2[nH]1)C1CC1 [Example 406, N-(3-chloro-4-fluorophenyl)-2-((2-(cyclopropyl(isopropyl)amino)ethyl)amino)-N′-hydroxy-1H-imidazo[4,5-b]pyridine-7-carboximidamide] |
| 668 nM | CC1CN(C(C)CNc2nc3nccc(/C(=N/O)Nc4ccc(F)c(Cl)c4)c3[nH]2)CC(C)O1 (stereo not drawn) [Example 483, N-(3-chloro-4-fluorophenyl)-2-((2-(2,6-dimethylmorpholino)propyl)amino)-N′-hydroxy-1H-imidazo[4,5-b]pyridine-7-carboximidamide] |
| 261 nM | CO[C@@H]1CN(C)C[C@H]1Nc1nc2c(F)c(F)cc(/C(=N/O)Nc3ccc(F)c(Cl)c3)c2[nH]1 [Example 458, N-(3-chloro-4-fluorophenyl)-4,5-difluoro-N′-hydroxy-2-(((3R,4R)-4-methoxy-1-methylpyrrolidin-3-yl)amino)-1H-benzo[d]imidazole-7-carboximidamide] |
